# Measured values from article PMC3898987 (Bioorganic & Medicinal Chemistry, 2013).
# Numbering of substitutions follows the chain as printed.
# How the values were obtained:
# [1] = target: T1, 5-HT3AB receptor, 5-HT3B subunit E170A (Homo sapiens, UniProt P46098); test: FlexStation membrane potential dye functional assay, HEK293 cells; assay type: cell-based
# T1 construct: variant as stated: E170A
# T1 sequence (P46098 24-478): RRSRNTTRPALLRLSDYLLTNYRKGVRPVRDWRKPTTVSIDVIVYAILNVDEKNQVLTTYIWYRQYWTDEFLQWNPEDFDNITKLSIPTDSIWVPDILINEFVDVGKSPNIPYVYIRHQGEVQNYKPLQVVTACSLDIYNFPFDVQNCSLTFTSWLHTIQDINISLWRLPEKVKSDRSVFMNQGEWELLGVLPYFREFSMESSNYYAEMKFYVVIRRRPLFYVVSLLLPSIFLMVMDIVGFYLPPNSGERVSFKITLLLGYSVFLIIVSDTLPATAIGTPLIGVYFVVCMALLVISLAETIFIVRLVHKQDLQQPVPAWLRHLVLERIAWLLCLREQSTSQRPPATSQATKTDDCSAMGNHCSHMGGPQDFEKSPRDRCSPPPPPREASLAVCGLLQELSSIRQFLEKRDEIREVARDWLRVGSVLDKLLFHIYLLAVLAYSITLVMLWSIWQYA
# T1 sequence (O95264 22-441 partner): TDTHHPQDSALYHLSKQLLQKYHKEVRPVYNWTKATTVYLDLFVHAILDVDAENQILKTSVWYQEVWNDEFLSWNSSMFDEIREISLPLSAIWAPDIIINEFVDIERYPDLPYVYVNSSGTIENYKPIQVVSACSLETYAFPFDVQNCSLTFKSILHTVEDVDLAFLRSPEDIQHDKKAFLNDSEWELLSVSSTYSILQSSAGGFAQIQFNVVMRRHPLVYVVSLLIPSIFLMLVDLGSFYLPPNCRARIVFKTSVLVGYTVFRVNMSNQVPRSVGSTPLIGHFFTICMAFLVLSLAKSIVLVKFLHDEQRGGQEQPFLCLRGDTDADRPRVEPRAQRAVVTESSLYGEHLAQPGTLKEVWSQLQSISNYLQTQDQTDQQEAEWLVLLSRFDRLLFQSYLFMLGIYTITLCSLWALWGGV
# Method: Human embryonic kidney (HEK) 293 cells were cultured on 90 mm tissue culture plates at 37 °C and 7% CO2 in a humidified atmosphere. They were grown in DMEM:F12 (Dulbecco’s Modified Eagle’s Medium/Nutrient Mix F12 (1:1)) with GlutaMAX I™ containing 10% fetal calf serum and passaged when confluent. […] For FlexStation assays, transfected cells were plated on 96-well plates and incubated 1–2 days before assay.
# Mutagenesis reactions were performed using either the Kunkel method or the QuikChange kit (Agilent Technologies Inc., CA, USA) using human 5-HT3A or 5-HT3B receptor subunit cDNA (accession numbers: P46098 and O95264) in pcDNA3.1 (Invitrogen, Paisley, UK). Subunit numberings have been altered to the aligning residues in the mouse 5-HT3A subunit for ease of comparison with other studies.
# (§1) Fluorometric studies were undertaken using a FlexStation® (Molecular Devices, Sunnyvale, CA, USA) as previously described.[11]
# (§2) Fluorescence was measured every 2 s for 200 s. […] Concentration–response and inhibition curves were obtained for each mutant, and the fluorescence values were normalized to the maximal response.
# WT 5-HT3AB receptor = target: T2, WT 5-HT3AB receptor (Homo sapiens, UniProt O95264+P46098); test: radioligand saturation binding, transfected HEK293 membranes; settings: [3H]-palonosetron saturation, 4 °C, 24 h
# T2 sequence (P46098 24-478): T1 sequence (P46098 24-478)
# T2 sequence (O95264 22-441): T1 sequence (O95264 22-441 partner)
# Method: (§3) Human embryonic kidney (HEK) 293 cells were cultured on 90 mm tissue culture plates at 37 °C and 7% CO2 in a humidified atmosphere. They were grown in DMEM:F12 (Dulbecco’s Modified Eagle’s Medium/Nutrient Mix F12 (1:1)) with GlutaMAX I™ containing 10% fetal calf serum and passaged when confluent. For radioligand binding studies, cells in 90 mm dishes were transfected at 60–70% confluency using polyethyleneimine and incubated for 3–4 days before use. For FlexStation assays, transfected cells were plated on 96-well plates and incubated 1–2 days before assay. […]
# (§4) Eight-point binding assays were performed to produce saturation binding curves. […] Radioactive counts were measured using a Beckman LS6000SC liquid scintillation counter (Fullerton, California, USA).
# (§5) Data were analyzed by iterative curve fitting using GraphPad Prism v5 (San Diego, CA) according to the following equation: B=Bmax[L]^n/kdn+[L]^n where B is the amount of bound radioligand, Bmax is the maximum specific binding at equilibrium, [L] is the concentration of radioligand, Kd is the equilibrium dissociation constant of the radioligand, and n is the Hill coefficient.
# 5-HT3A receptor W183C = target: T3, 5-HT3A receptor W183C (Homo sapiens, UniProt P46098, W178C); test: as above; settings: [3H]-palonosetron saturation, 5-HT3A W183C, 4 °C, 24 h, NB = no binding
# T3 sequence (P46098 24-478 W178C): T1 sequence (P46098 24-478) with W155C
# Method: as §3, §4, §5
# 5-HT3A receptor S163T = target: T4, 5-HT3A receptor S163T (Homo sapiens, UniProt P46098, S158T); test: FlexStation membrane potential dye functional assay, HEK293 cells; assay type: cell-based; set-up: expressed in transfected cells; host or cells: HEK293; settings: inhibition of 5-HT (EC50 concentration) response, 45 min preincubation, 5-HT3A S163T
# T4 sequence (P46098 24-478 S158T): T1 sequence (P46098 24-478) with S135T
# Method: (§6) For FlexStation assays, transfected cells were plated on 96-well plates and incubated 1–2 days before assay.
# as §1, §2
# [2] = target: T5, 5-HT3AB receptor, 5-HT3B subunit I183A (Homo sapiens, UniProt O95264+P46098, I176A); test: as above; settings: 5-HT concentration-response, 5-HT3AB with 5-HT3B I183A
# T5 sequence (P46098 24-478): T1 sequence (P46098 24-478)
# T5 sequence (O95264 22-441 I176A): T1 sequence (O95264 22-441 partner) with I155A
# Method: as §6, §1, §2
Compound,IC50 [1] [nM],Kd (WT 5-HT3AB receptor) [nM],Kd (5-HT3A receptor W183C) [nM],Kd (5-HT3A receptor W183C; listed as [^3H]palonosetron),IC50 (5-HT3A receptor S163T) [nM],Hill Coefficient [2]
O=C1c2cccc3c2[C@H](CCC3)CN1[C@@H]1CN2CCC1CC2 [Palonosetron],0.36 ± 0.11,0.18 ± 0.02,> 2,"no saturable, specific binding",1.02 ± 0.19,–
"NCCc1c[nH]c2ccc(O)cc12 [5-HT, serotonin]",–,–,–,–,–,1.2 ± 0.2
